{"source": "patent US20120283293A1", "about": "“Methods of neuroprotection involving Prostaglandin E2 EP4 (PGE2 EP4) receptor activation” (The Board of Trustees of the Leland Stanford Junior …, priority 2011, published 2012)", "system": "PKA activity in BV-2 cells", "test": "cAMP dependent protein kinase A (PKA) activity assay in BV-2 cells", "type": "cell-based, murine", "details": "H89 at 5 μM and 10 μM", "protocol": "PKA activity was determined using the PKA kinase activity assay kit (Assay designs, Ann Arbor, Mich.). Cells were harvested 3 minutes after stimulation, and ELISA was carried out according to the manufacturer's instructions. Kinase activity was calculated as (sample absorbance—blank absorbance)/μg protein and normalized to the average value of vehicle.\nDownstream signaling events for EP4, a […] receptor, were investigated in LPS treated BV-2 cells (see FIG. 3). […] The increase in PKA activity from EP4 receptor signaling was blocked with the PKA inhibitor H89 at doses of 5 μM and 10 μM (FIG. 3B)."}
{"compound": "O=S(=O)(NCCNC/C=C/c1ccc(Br)cc1)c1cccc2cnccc12", "note": "[H89]", "values": [{"measurement": "AE1-329-mediated increase in PKA activity", "value": "blocked"}]}
